Results published in patent publication US9802898B2, “Phenyl and tertbutylacetic acid substituted pyridinones having anti-HIV effects” (priority 2014, dated 2017).

System: HIV
Experiment: MT4 assay, antiviral HIV activity
Assay type: cell-based
Settings: Human immunodeficiency virus 1, 96 h, read-out: HIV MT4 Assay IC50
Protocol: Antiviral HIV activity and cytotoxicity values for compounds of the invention from Table 1 were measured in parallel in the HTLV-1 transformed cell line MT-4 based on the method previously described (Hazen et al., 2007, In vitro antiviral activity of the novel, tyrosyl-based human immunodeficiency virus (HIV) type 1 protease inhibitor brecanavir (GW640385) in combination with other antiretrovirals and against a panel of protease inhibitor-resistant HIV (Hazen et al., “In vitro antiviral activity of the novel, tyrosyl-based human immunodeficiency virus (HIV) type 1 protease inhibitor brecanavir (GW640385) in combination with other antiretrovirals and against a panel of protease inhibitor-resistant HIV”, Antimicrob. Agents Chemother. 2007, 51: 3147-3154; and Pauwels et al., “Sensitive and rapid assay on MT-4 cells for the detection of antiviral compounds against the AIDS virus”, J. of Virological Methods 1987, 16: 171-185).
Luciferase activity was measured 96 hours later by adding a cell titer glo (Promega, Madison, Wis.). Percent inhibition of cell protection data was plotted relative to no compound control. Under the same condition, cytotoxicity of the compounds was determined using cell titer Glo™ (Promega, Madison, Wis.). IC50s were determined from a 10 point dose response curve using 3-4-fold serial dilution for each compound, which spans a concentration range >1000 fold.
These values are plotted against the molar compound concentrations using the standard four parameter logistic equation: y=((Vmax*x^n)/(K^n+x^n))+Y2
Y2=minimum y n=slope factor
Vmax=maximum y x=compound concentration [M]

Row | Structure (SMILES) | IC50
1 | Cc1ccc(-c2c(C)c(C(=O)N[C@H]3CC[C@H](C)CC3)cc(=O)n2C(CC(C)(C)C)C(=O)O)cc1 (stereo partly drawn) [Example 1, 4,4-Dimethyl-2-(5-methyl-4-(((1r,4r)-4-methylcyclohexyl)carbamoyl)-2-oxo-6-(p-tolyl)pyridin-1(2H)-yl)pentanoic acid] | 0.35 µM
2 | Cc1ccc(-c2c(C)c(-c3ccc(C)c(C)c3)cc(=O)n2C(CC(C)(C)C)C(=O)O)cc1 (stereo not drawn) [Example 2, 2-(4-(3,4-Dimethylphenyl)-5-methyl-2-oxo-6-(p-tolyl)pyridin-1(2H)-yl)-4,4-dimethylpentanoic acid] | 1.09 µM
3 | Cc1ccc(-c2c(C)c(-c3ccc(C)c(C)c3)c(NS(C)(=O)=O)c(=O)n2C(CC(C)(C)C)C(=O)O)cc1 (stereo not drawn) [Example 3, 2-(4-(3,4-dimethylphenyl)-5-methyl-3-(methylsulfonamido)-2-oxo-6-(p-tolyl)pyridin-1(2H)-yl)-4,4-dimethylpentanoic acid] | 0.31 µM
4 | Cc1ccc(-c2c(C)cc(NS(C)(=O)=O)c(=O)n2C(CC(C)(C)C)C(=O)O)cc1 (stereo not drawn) [Example 4, 4,4-Dimethyl-2-(5-methyl-3-(methylsulfonamido)-2-oxo-6-(p-tolyl)pyridin-1(2H)-yl)pentanoic acid] | 33 µM
5 | Cc1ccc(-c2c(C)c(-c3nnc(N[C@H]4CC[C@H](C)CC4)o3)cc(=O)n2C(CC(C)(C)C)C(=O)O)cc1 (stereo partly drawn) [Example 6, 4,4-Dimethyl-2-(5-methyl-4-(5-(((1 r,4r)-4-methylcyclohexyl)amino)-1,3,4-oxadiazol-2-yl)-2-oxo-6-(p-tolyl)pyridin-1(2H)-yl)pentanoic acid] | 5.6 µM
6 | Cc1ccc(-c2c(C)c(C(=O)NC3CCCCC3)cc(=O)n2C(CC(C)(C)C)C(=O)O)cc1 (stereo not drawn) [Example 7, 2-(4-(cyclohexylcarbamoyl)-5-methyl-2-oxo-6-p-tolylpyridin-1(2H)-yl)-4,4-dimethylpentanoic acid] | 0.43 µM
7 | Cc1ccc(-c2c(C)c(C(=O)NCC3CCCCC3)cc(=O)n2C(CC(C)(C)C)C(=O)O)cc1 (stereo not drawn) [Example 8, 2-(4-(cyclohexylmethylcarbamoyl)-5-methyl-2-oxo-6-p-tolylpyridin-1(2H)-yl)-4,4-dimethylpentanoic acid] | 0.84 µM
8 | Cc1ccc(-c2c(C)c(C(=O)NCc3ccccc3)cc(=O)n2C(CC(C)(C)C)C(=O)O)cc1 (stereo not drawn) [Example 9, 2-(4-(benzylcarbamoyl)-5-methyl-2-oxo-6-p-tolylpyridin-1(2H)-yl)-4,4-dimethylpentanoic acid] | 3.29 µM
9 | Cc1ccc(-c2c(C)cc(NS(=O)(=O)CC3CCCCC3)c(=O)n2C(CC(C)(C)C)C(=O)O)cc1 (stereo not drawn) [Example 10, 2-(3-(cyclohexylmethylsulfonamido)-5-methyl-2-oxo-6-(p-tolyl)pyridin-1(2H)-yl)-4,4-dimethylpentanoic acid] | 1.56 µM
